Assay [1] deals with T1, isolated kinase domain of the human FLT3 receptor (a.a. 571-993) (Homo sapiens, UniProt P36888).
T1 construct: human FLT3 receptor (a.a. 571-993)
T1 sequence (P36888 571-993): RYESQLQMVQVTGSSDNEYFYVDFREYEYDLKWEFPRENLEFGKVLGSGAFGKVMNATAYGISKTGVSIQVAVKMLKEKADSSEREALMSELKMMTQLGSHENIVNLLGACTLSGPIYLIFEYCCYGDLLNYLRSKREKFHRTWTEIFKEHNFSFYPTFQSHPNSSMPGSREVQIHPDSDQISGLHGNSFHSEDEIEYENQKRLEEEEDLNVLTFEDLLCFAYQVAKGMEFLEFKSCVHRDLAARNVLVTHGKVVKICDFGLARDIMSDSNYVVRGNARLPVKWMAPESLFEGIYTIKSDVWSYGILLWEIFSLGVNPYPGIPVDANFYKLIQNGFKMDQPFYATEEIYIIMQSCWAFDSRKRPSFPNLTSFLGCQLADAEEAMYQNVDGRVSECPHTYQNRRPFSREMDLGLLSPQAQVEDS
Briefly: FLT3 fluorescence polarization kinase assay. The class given is biochemical. The settings on record: 150 uM ATP; uncertainty ±10%. On the technique in general: Fluorescence polarisation rises when a labelled molecule tumbles more slowly, as on binding a larger partner.

The subject of assay [2] is MV4-11 cells. The experiment in a line: Inhibition of MV4-11 cell proliferation (CellTiterGlo, 72 h). The class given is cell-based. The settings on record: Homo sapiens; 72 h growth inhibition; uncertainty ±20%. (ATP-based viability assays read luminescence as a measure of living cells.)

Structures are written as SMILES.

Regarding `CN1CCC(COc2ccc3c(C4CCN(C(=O)Nc5ccc(OC6CCC6)nc5)CC4)ncnc3c2)CC1` [Example 107, 4-[7-(1-Methyl-piperidin-4-ylmethoxy)-quinazolin-4-yl]-piperidine-1-carboxylic acid (6-cyclobutoxy-pyridin-3-yl)-amide], the concentration for half-maximal inhibition (IC50) (as a rule, the concentration that gives 50% inhibition) in assay [1] worked out at 1 nM; in assay [2] it was 23 nM.
For the compound `COc1cc2ncnc(C3CCN(C(=O)Nc4ccc(C(C)O)cc4)CC3)c2cc1OC` (stereo not drawn) [Example 55, 4-(6,7-Dimethoxy-quinazolin-4-yl)-piperidine-1-carboxylic acid [4-(1-hydroxy-ethyl)-phenyl]-amide], the IC50 amounted to 1100 nM in assay [1] and 2600 nM in assay [2].
For `CC(C)Oc1ccc(NC(=O)N2CCC(c3ncnc4cc(OCCN5CCOC5=O)ccc34)CC2)cc1` [Example 79, 4-{7-[2-(2-Oxo-oxazolidin-3-yl)-ethoxy]-quinazolin-4-yl}-piperidine-1-carboxylic acid (4-isopropoxy-phenyl)-amide], the IC50 is 58 nM in assay [1] and 44 nM in assay [2].
On to `CC(C)Oc1ccc(NC(=O)N2CCC(c3ncnc4ccc(I)cc34)CC2)cc1` [Example 11, 4-(6-Iodo-quinazolin-4-yl)-piperidine-1-carboxylic acid (4-isopropoxy-phenyl)-amide], for which the IC50 in assay [1] worked out at 46 nM; in assay [2] it was 460 nM.
Turning to `COc1cc2ncnc(C3CCN(C(=O)Nc4ccc(C(C)(C)C)cc4)CC3)c2cc1OC` [Example 53, 4-(6,7-Dimethoxy-quinazolin-4-yl)-piperidine-1-carboxylic acid (4-tert-butyl-phenyl)-amide], the results for the IC50 in assay [1] and in assay [2] were 15 nM and 48 nM, respectively.
As to `CS(=O)(=O)NCCCOc1ccc2c(C3CCN(C(=O)Nc4ccc(N5CCOCC5)nc4)CC3)ncnc2c1` [Example 87, 4-[7-(3-Methanesulfonylamino-propoxy)-quinazolin-4-yl]-piperidine-1-carboxylic acid (6-morpholin-4-yl-pyridin-3-yl)-amide], the IC50 in assay [1] was 32 nM; in assay [2], 69 nM.
As to `O=C(Nc1ccc(N2CCOCC2)nc1)N1CCC(c2ncnc3cc(OCCN4CCOC4=O)ccc23)CC1` [Example 91, 4-{7-[2-(2-Oxo-oxazolidin-3-yl)-ethoxy]-quinazolin-4-yl}-piperidine-1-carboxylic acid (6-morpholin-4-yl-pyridin-3-yl)-amide], the figures for the half-inhibitory concentration (IC50) in assay [1] and in assay [2] were 3 nM and 98 nM, respectively.
As for `COc1cc2ncnc(C3CCN(C(=O)Nc4ccc(OC(C)C)nc4)CC3)c2cc1OC` [Example 56, 4-(6,7-Dimethoxy-quinazolin-4-yl)-piperidine-1-carboxylic acid (6-isopropoxy-pyridin-3-yl)-amide], the results for the IC50 in assay [1] and in assay [2] were 30 nM and 189 nM, respectively.
Take `CC(C)Oc1ccc(NC(=O)N2CCC(c3ccnc4ccccc34)CC2)cc1` [Example 6, 4-Quinolin-4-yl-piperidine-1-carboxylic acid (4-isopropoxy-phenyl)-amide]: the IC50 in assay [1] worked out at 84 nM; in assay [2], 280 nM.
Turning to `CN1CCN(CCCOc2ccc3c(C4CCN(C(=O)Nc5ccc(N6CCCC6)nc5)CC4)ncnc3c2)CC1` [Example 104, 4-{7-[3-(4-Methyl-piperazin-1-yl)-propoxy]-quinazolin-4-yl}-piperidine-1-carboxylic acid (6-pyrrolidin-1-yl-pyridin-3-yl)-amide], the IC50 is 11 nM in assay [1] and 12 nM in assay [2].
On to `COc1cc2ncnc(C3CCN(C(=O)Nc4ccccc4)CC3)c2cc1OC` [Example 45, 4-(6,7-Dimethoxy-quinazolin-4-yl)-piperidine-1-carboxylic acid phenylamide], for which the figures for the IC50 in assay [1] and in assay [2] were 3700 nM and 16700 nM, respectively.
The matching figures for `CCOc1ccc(NC(=O)N2CCC(c3ncnc4cc(OC)c(OC)cc34)CC2)cc1` [Example 44, 4-(6,7-Dimethoxy-quinazolin-4-yl)-piperidine-1-carboxylic acid (4-ethoxy-phenyl)-amide]: 150 nM and 725 nM.
`CC(C)Oc1ccc(NC(=O)N2CCC(c3ncnc4cc(N5CCN(C)CC5)ccc34)CC2)cc1` [Example 103, 4-[7-(4-Methyl-piperazin-1-yl)-quinazolin-4-yl]-piperidine-1-carboxylic acid (4-isopropoxy-phenyl)-amide]: the IC50 in assay [1] is 1 nM; in assay [2], 25 nM.
Turning to `CC(C)Oc1ccc(NC(=O)N2CCC(c3ncnc4ccc(OCCCN5CCN(C)CC5)cc34)CC2)cc1` [Example 76, 4-{6-[3-(4-Methyl-piperazin-1-yl)-propoxy]-quinazolin-4-yl}-piperidine-1-carboxylic acid (4-isopropoxy-phenyl)-amide], the values for the IC50 in assay [1] and in assay [2] were 251 nM and 179 nM, respectively.
With `CC(C)c1ccc(NC(=O)N2CCC(c3ncnc4ccccc34)CC2)cc1` [Example 7, 4-Quinazolin-4-yl-piperidine-1-carboxylic acid (4-isopropyl-phenyl)-amide], the IC50 came out at 55 nM in assay [1] and 232 nM in assay [2].
In the case of `CS(=O)(=O)NCCCOc1ccc2c(C3CCN(C(=O)Nc4ccc(N5CCOCC5)cc4)CC3)ncnc2c1` [Example 66, 4-[7-(3-Methanesulfonylamino-propoxy)-quinazolin-4-yl]-piperidine-1-carboxylic acid (4-morpholin-4-yl-phenyl)-amide], the IC50 in assay [1] is 18 nM; in assay [2], 14 nM.
`O=C(Nc1ccc(N2CCOCC2)cc1)N1CCC(c2ncnc3cc(OCCC4CCCCN4)ccc23)CC1` (stereo not drawn) [Example 98, 4-[7-(2-Piperidin-2-yl-ethoxy)-quinazolin-4-yl]-piperidine-1-carboxylic acid (4-morpholin-4-yl-phenyl)-amide]: the results for the half-inhibitory concentration (IC50) in assay [1] and in assay [2] were 27 nM and 277 nM, respectively.
For `COCCCOc1ccc2c(C3CCN(C(=O)Nc4ccc(N5CCOCC5)cc4)CC3)ncnc2c1` [Example 78, 4-[7-(3-Methoxy-propoxy)-quinazolin-4-yl]-piperidine-1-carboxylic acid (4-morpholin-4-yl-phenyl)-amide] the same measures were 225 nM and 81 nM.
The matching figures for `O=C(Nc1ccc(N2CCOCC2)cc1)N1CCC(c2ncnc3cc(OCCCN4CCN(CCO)CC4)ccc23)CC1` [Example 116, 4-(7-{3-[4-(2-Hydroxy-ethyl)-piperazin-1-yl]-propoxy}-quinazolin-4-yl)-piperidine-1-carboxylic acid (4-morpholin-4-yl-phenyl)-amide]: 14 nM and 139 nM.
Turning to `COc1cc2ncnc(C3CCN(C(=O)NC4CCC(C(C)(C)C)CC4)CC3)c2cc1OC` (stereo not drawn) [Example 54, 4-(6,7-Dimethoxy-quinazolin-4-yl)-piperidine-1-carboxylic acid (4-tert-butyl-cyclohexyl)-amide], the IC50 in assay [1] was determined as 170 nM; in assay [2], 224 nM.
Take `CC(C)Oc1ccc(NC(=O)N2CCC(c3ncnc4cc(OCC5CCN(C)CC5)ccc34)CC2)cc1` [Example 93, 4-[7-(1-Methyl-piperidin-4-ylmethoxy)-quinazolin-4-yl]-piperidine-1-carboxylic acid (4-isopropoxy-phenyl)-amide]: the IC50 in assay [1] was 0.2 nM; in assay [2] it was 9 nM.
